In paper PMC3923439, “Anti-inflammatory properties of a novel peptide interleukin 1 receptor antagonist” (Journal of Neuroinflammation, 2014):
Positions of bridges follow the written chain, without caps; N, C: chain ends. Chains are numbered I, II in the order given. No end group written: not given here.

How the values were obtained:
[1] = system: collagen-induced arthritis; assay: Collagen-induced arthritis in rats; type: in vivo; settings: rat, 10 mg/kg s.c. daily dpi 8 to 15, dpi 10 to 16, P < 0.05
Experimental: CIA was induced by bovine collagen type II (CII; Sigma-Aldrich) solubilized in 0.05 M acetic acid (2 mg/ml), then emulsified 1:1 with complete Freund’s adjuvant (CFA) (Sigma-Aldrich) that contained 1.0 mg/ml heat-inactivated Mycobacterium tuberculosis. While the animals were under inhalation anesthesia (3% isoflurane; Baxter, Allerød, Denmark), 250 μl of the emulsion that contained 250 μg of CII and 125 μg of M. tuberculosis were injected intradermally at the tail base (day postimmunization 0 (dpi 0)). […] An observer who was blinded to the treatment groups evaluated the severity of arthritis by employing the following grading system: 0 (no redness or swelling of the foot), 1 (slight redness in the foot or redness and swelling in single interphalangeal joints), 2 (moderate swelling and redness in the ankle and metatarsal part of the foot), 3 (marked swelling and redness of the entire foot, with restricted use of the foot during locomotion) and 4 (marked swelling and redness of the entire foot, with no use of the foot during locomotion). […] The differences in the area under the clinical score curve during the period of observation between the control and peptide-treated groups were calculated, with baseline defined as the start of treatment (that is, 0).

[2] = system: experimental autoimmune encephalomyelitis; assay: Experimental autoimmune encephalomyelitis; type: in vivo, rat; settings: female Lewis rats
Experimental: Experimental autoimmune enchephalomyelitis was induced in female Lewis rats by guinea pig myelin basic protein (MBP) emulsified with CFA (Sigma-Aldrich) that contained 1.0 mg/ml heat-inactivated M. tuberculosis. While the animals were under inhalation anesthesia (3% isoflurane; Baxter), 200 μl of an emulsion that contained 200 μg of MBP were subcutaneously injected at the tail base (dpi 0). Between dpi 0 and 21, weight and clinical signs of EAE were recorded daily for all of the animals. Clinical signs were scored as follows: 0 (no abnormality), 0.5 (weak tail), 1 (limp tail), 2 (mild palsy of one or both hind legs), 3 (severe palsy of one or both hind legs), 4 (complete paralysis of one or both hind legs), 5 (paralysis of one or both hindlimbs and the beginning of paralysis of the forelimbs) and 6 (moribund). Animals with a clinical score ≥4 were immediately killed. From dpi 10 forward, the animals were treated once daily for 5 consecutive days with Ilantide-t (10 mg/kg, 1 ml/kg, s.c.) or PBS (1.0 ml/kg s.c.). Only animals that reached a clinical score ≥1 before dpi 14 were included in the study.

[3] = system: LPS-induced neuroinflammation; assay: Lipopolysaccharide-induced impairment of social behavior; type: in vivo; settings: rat
Experimental: The peripheral administration of LPS, the active fragment of bacterial endotoxin, results in an increase in the plasma levels of all proinflammatory cytokines and behavioral depression. LPS-induced behavioral depression was assessed by measuring the reduction of the duration of social interaction during 4-minute sessions. Six- to seven-week-old rats were handled for five days, habituated to the test cages and the experiment room and trained for social interaction with three-week-old juvenile rats introduced into the test cage for four minutes two days before the actual experiment. On the day of the experiment, the rats were intraperitoneally injected (i.p.) with saline or LPS (Escherichia coli 0111:B4; Sigma-Aldrich) dissolved in saline (250 μg/kg). Immediately after the i.p. injection, Ilantide-t (Ila; 10 mg/kg, equivalent to 2.1 μmol/kg), Ana ([…], equivalent to 5.8 μmol/kg) or saline was injected subcutaneously. The volume of all of the injections was 1.0 ml/kg. Six experimental groups were used: vehicle i.p./vehicle s.c. (veh/veh; n = 10), vehicle i.p./Ilantide-t s.c. (veh/Ila; n = 8), vehicle i.p./Ana s.c. (veh/Ana; n = 9), LPS i.p./vehicle s.c. (LPS/veh; n = 10), LPS i.p./Ilantide-t s.c. (LPS/Ila; n = 11) and LPS i.p./Ana s.c. (LPS/Ana; n = 11). The injections and weighing of the rats were performed immediately after the first test session (0 h), and the animals were tested and weighed again 2, 4, 6, 8, and 24 hours later. Different juvenile animals were presented on each occasion. Social interaction consisted of anogenital sniffing, licking and chewing the fur of the juveniles by the experimental animals and was monitored with a video camera. […] The duration of social interaction at each time point is expressed as the percentage of baseline values and was averaged for each experimental group. Social interaction was scored by an observer who was blinded to the treatment of the animals. For evaluation of levels of pro- and anti-inflammatory cytokines in blood, rats were injected with LPS and then immediately with either vehicle (n = 8) or Ilantide-t (n = 8) as described above. In addition, a control group of animals (n = 4) was treated with Ilantide-t alone (control). Blood samples were collected at 0, 2 and 6 hours after injections as described for the pharmacokinetics study and stored at -20°C until use. The levels of IL-6, IFN-γ and IL-10 were determined using corresponding rat ELISA kits according to the manufacturer’s protocols (all from BD Biosciences, San Diego, CA, USA).

[4] = system: Cerebellar granule neurons; assay: Survival of cerebellar granule neurons induced to undergo apoptosis by low potassium; type: cell-based, rat; settings: 5 mM KCl, survival estimated 48 hours later
Experimental: Cerebellar granule neurons (CGNs) were prepared from 7-day-old Wistar rats (from Charles River Laboratories, Sulzfeld, Germany; or from Hygind Møllegård Erik Møllegaard Hansen, Ejby, Denmark) as previously described. Briefly, the cerebella were cleared of meninges and blood vessels, roughly homogenized by chopping and trypsinized. The cells were washed in the presence of DNAse I and soybean trypsin inhibitor (Sigma-Aldrich, St Louis, MO, USA), and cellular debris was pelleted by centrifugation. The fibroblastoid mouse cell line L929 (LVN; European Collection of Cell Cultures, Porton Down, UK) was routinely grown at 37°C with 5% CO2 in DMEM supplemented with 10% (vol/vol) FCS, 2 mM GlutaMAX, 100 U/ml penicillin and 100 μg/ml streptomycin.
Cerebellar granule neurons were plated at a density of 1 × 10^5 cells/cm^2 on poly-L-lysine-coated, eight-well Permanox Lab-Tek chamber slides (Nunc) in Neurobasal-A medium supplemented with 2% (vol/vol) B27 (Gibco BRL), 0.5% (vol/vol) GlutaMAX, 100 U/ml penicillin and 100 μg/ml streptomycin. The CGN survival assay was performed as previously described. The neurite outgrowth assay was also performed as previously described.
Figure 5 Effect of Ilantide and interleukin 1 receptor antagonist on survival of cerebellar granule neurons induced to undergo apoptosis. The neurons were allowed to differentiate for 7 days in a high-potassium (40 mM) medium before apoptosis was induced by changing to a low-potassium medium (5 mM). Survival was estimated 48 hours later. (A) The effect of insulin-like growth factor 1 (IGF-1), interleukin 1 receptor antagonist (IL-1Ra) and IL-1β on cerebellar granule neuron (CGN) apoptosis induced by 5 mM KCl. (B) The effect of Ilantide-m on CGN apoptosis induced by 5 mM KCl. […] The results from at least four independent experiments are expressed as mean ± SEM with untreated cultures induced to undergo apoptosis by 5 mM KCl set at 100%. *P < 0.05 and **P < 0.01 compared with untreated cultures induced to undergo apoptosis (one-way analysis of variance followed by Newman-Keuls post hoc test).

[5] = 10 mg/kg s.c. once daily dpi 10 to 14
[6] = 10 mg/kg s.c. once daily for 5 days

Substance	Severity of CIA (clinical score, area under the curve) versus vehicle [1]	Clinical signs of EAE [2, 5]	Effect on weight change or survival in EAE [2, 5]	Mean clinical signs of EAE versus vehicle, first and second days after onset [2, 6]	Mean clinical signs of EAE versus vehicle, later time points [2, 6]	IL-10 plasma levels ([3]; 2 hours after LPS administration, Ilantide-t 10 mg/kg s.c., ELISA, P < 0.01)	Plasma levels of proinflammatory cytokines (IL-6 and IFN-γ) ([3]; 6 hours following LPS injection, Ilantide-t 10 mg/kg s.c., ELISA, tendency toward reduction)	Effect on LPS-induced body weight decrease ([3]; 24 hours after LPS 250 μg/kg i.p., Ilantide-t 10 mg/kg, Ana 100 mg/kg s.c., P < 0.05)	Effect on LPS-induced depression of social activity (sickness behavior) ([3]; LPS 250 μg/kg i.p., Ilantide-t 10 mg/kg s.c., Ana 100 mg/kg s.c., 2 to 24 hours)	CGN survival after potassium withdrawal [4]
I: SGRKSSKMQAKK-NH2 / II: SGRKSSKMQAK / III: SGRKSSKMQA / IV: SGRKSSKMQA (amide I:11-IV:C, I:12-II:C, II:11-III:C; C-terminus assumed) [Ilantide-t]	significantly attenuated	attenuated	no significant effects	significantly lower	no difference	increase in IL-10 plasma levels	not statistically significant	attenuated the anorexigenic effect of LPS	attenuated social depression	concentration-dependently promoted CGN survival
IL-1Ra: recombinant interleukin 1 receptor antagonist purchased from R&D Systems	–	–	–	–	–	–	–	–	–	concentration-dependently promoted CGN survival
